The numbers were not newly measured in publication PMC11887451, “Leveraging Immunogenic Cell Death to Enhance the Immune Response against Malignant Pleural Mesothelioma Tumors” (Journal of the American Chemical Society, 2025), which cites them from elsewhere.

This series relates to hepatocellular carcinoma tumors. Further details: method as in PMID 38261008, PMID 36827091. Particulars: cited from earlier work.

Each structure is given as a SMILES string.

Regarding `CCn1cc[n+](CC)[c]1[Au-][C]#CCOC(=O)[C@@]1(C)CC[C@]2(C)CC[C@]3(C)C(=CC(=O)[C@@H]4[C@@]5(C)CC[C@H](OC(=O)CCCCC[P+](c6ccccc6)(c6ccccc6)c6ccccc6)C(C)(C)[C@@H]5CC[C@]43C)[C@@H]2C1.[Br-]` [Au4], the “tumor-free time of vaccinated mice” value is “more than 30 days”.
